Test results taken from article PMC10018608 (Signal Transduction and Targeted Therapy, 2023).
Read-outs that look alike come from different tables or passages of the source.

Experiments:
in vitro [1] = type: in vitro ADME; settings: human, microsomes, HLM 0.5 mg/mL, 1 μM; for remaining at 0 h: 0 min, read-out: Percent Remaining (%) 0 min; for remaining at 0 h / remaining at 5 min / remaining at […] / remaining at 0.5 h / remaining at 0.75 h / remaining at 1 h: Mean; for remaining at 5 min: read-out: Percent Remaining (%) 5 min; for remaining at […]: 15 min, read-out: Percent Remaining (%) 15 min; for remaining at 0.5 h: 30 min, read-out: Percent Remaining (%) 30 min; for remaining at 0.75 h: 45 min, read-out: Percent Remaining (%) 45 min; for remaining at 1 h: 60 min, read-out: Percent Remaining (%) 60 min; for CLint scaled: scaling factor 1254.2
in vivo = settings: male, Sprague-Dawley, rat
in vitro [2] = type: cell-based
Experimental: Cells were seeded and grown in 96 well plates overnight. Then various concentrations of compounds in fresh medium were added and incubated for 72 h. Using MTT (Sigma) assay to determine the cell viability.

[3] = SD rats
SARS-CoV-1 = experiment: microbe, parasite or virus in culture; type: cell-based; settings: Severe acute respiratory syndrome coronavirus, VeroE6/TMPRSS2, read-out: EC50 (plaque reduction)
SARS-CoV-2 (B.1.351) = experiment: Plaque reduction assay in VeroE6-TMPRSS2; type: cell-based; settings: Severe acute respiratory syndrome coronavirus 2
SARS-CoV-2 (B.1.1.7) = experiment: Plaque reduction assay in VeroE6-TMPRSS2; type: cell-based; settings: Severe acute respiratory syndrome coronavirus 2
MERS-CoV = experiment: microbe, parasite or virus in culture; type: cell-based; settings: Middle East respiratory syndrome-related coronavirus, VeroE6/TMPRSS2, read-out: EC50 (plaque reduction)
SARS-CoV-2 (BA.2) = experiment: Plaque reduction assay in VeroE6-TMPRSS2; type: cell-based; settings: Severe acute respiratory syndrome coronavirus 2
SARS-CoV-2 (BA.5) = experiment: microbe, parasite or virus in culture; type: cell-based; settings: Severe acute respiratory syndrome coronavirus 2, VeroE6-TMPRSS2, read-out: EC50 (plaque reduction)
in vitro [4] = type: in vitro ADME, human; settings: human, plasma
[5] = African green monkey, VeroE6, MTT, 72 h

Structure (SMILES)	half-life (in vitro [1])	remaining at 0 h (in vitro [1])	remaining at 5 min (in vitro [1])	remaining at […] (in vitro [1])	remaining at 0.5 h (in vitro [1])	remaining at 0.75 h (in vitro [1])	remaining at 1 h (in vitro [1])	CLint scaled (in vitro [1])	AUC(0-inf) (in vivo; iv, 1 mg/kg)	AUC(0-t) (in vivo; iv, 1 mg/kg)	Cmax (in vivo; iv, 1 mg/kg)	Tmax (in vivo; iv, 1 mg/kg)	clearance (in vivo; iv, 1 mg/kg)	half-life (in vivo; iv, 1 mg/kg)	AUC(0-inf) (in vivo; po, 10 mg/kg)	AUC(0-t) (in vivo; po, 10 mg/kg)	Cmax (in vivo; po, 10 mg/kg)	Tmax (in vivo; po, 10 mg/kg)	bioavailability (in vivo; po, 10 mg/kg)	half-life (in vivo; po, 10 mg/kg)	other results
O=C(CC1CC(F)(F)C1)NCC(=O)N[C@H](Cc1ccccc1)C(=O)C(=O)NCc1nccs1 [3q]	25.5 min	100%	86%	63.1%	40.1%	30.3%	19.1%	68.1 mL/min/kg	–	–	–	–	–	–	–	–	–	–	–	–	–
C[C@@H](NC(=O)C1CCC(F)(F)CC1)C(=O)N[C@H](Cc1ccccc1)C(=O)C(=O)NCc1nccs1 [3r]	35.6 min	100%	91.5%	73.2%	51%	39.1%	32.5%	48.8 mL/min/kg	1020 ± 262 ng·h/mL	1010 ± 258 ng·h/mL	1110 ± 70 ng/mL	4.8 min	17 ± 3.8 mL/min/kg	145 ± 134 min	2840 ± 327 ng·h/mL	2570 ± 679 ng·h/mL	306 ± 32.1 ng/mL	160 ± 69 min	25.4 ± 6.71%	181 ± 54.6 min	CC50 (in vitro [2]; [5]): > 500 µM; CC50 (in vitro [2]; human, BEAS-2B, MTT, 72 h): > 500 µM; CC50 (in vitro [2]; human, HUVEC, MTT, 72 h): > 500 µM; MTRlast ([3]; i.v. (1 mg/kg)): 1.31 ± 0.54 h; Vzobs ([3]; i.v. (1 mg/kg)): 3.05 ± 2.08 L/kg; MTRlast ([3]; p.o. (10 mg/kg)): 4.89 ± 1.14 h
C[C@@H](NC(=O)C1CCCC(F)(F)C1)C(=O)N[C@H](Cc1ccccc1)C(=O)C(=O)NCc1nccs1 (some centres unmarked) [3s]	25.4 min	100%	81.7%	64.2%	42%	28.4%	18.9%	68.4 mL/min/kg	–	–	–	–	–	–	–	–	–	–	–	–	–
C[C@@H](NC(=O)C1CCC(F)(F)C1)C(=O)N[C@H](Cc1ccccc1)C(=O)C(=O)NCc1nccs1 (some centres unmarked) [3t]	42.2 min	100%	89.1%	73.5%	56.2%	46.2%	37%	41.2 mL/min/kg	1330 ± 556 ng·h/mL	1290 ± 531 ng·h/mL	1320 ± 168 ng/mL	4.8 min	14.5 ± 7.25 mL/min/kg	114 ± 16.2 min	6900 ± 2620 ng·h/mL	6720 ± 2460 ng·h/mL	635 ± 161 ng/mL	100 ± 34.8 min	52 ± 19.1%	249 ± 88.8 min	CC50 (in vitro [2]; [5]): > 500 µM; CC50 (in vitro [2]; human, BEAS-2B, MTT, 72 h): > 500 µM; CC50 (in vitro [2]; human, HUVEC, MTT, 72 h): > 500 µM; MTRlast ([3]; i.v. (1 mg/kg)): 1.26 ± 0.42 h; Vzobs ([3]; i.v. (1 mg/kg)): 2.49 ± 1.61 L/kg; MTRlast ([3]; p.o. (10 mg/kg)): 5.90 ± 0.79 h
C[C@@H](NC(=O)CC1CC(F)(F)C1)C(=O)N[C@H](Cc1ccccc1)C(=O)C(=O)NCc1nccs1 [3u]	–	–	–	–	–	–	–	–	2250 ± 672 ng·h/mL	2200 ± 634 ng·h/mL	1570 ± 201 ng/mL	4.8 min	7.95 ± 2.8 mL/min/kg	328 ± 46.2 min	8700 ± 1120 ng·h/mL	8180 ± 795 ng·h/mL	735 ± 102 ng/mL	79.8 ± 34.8 min	37.2 ± 3.62%	350 ± 78 min	CC50 (in vitro [2]; [5]): > 500 µM; CC50 (in vitro [2]; human, BEAS-2B, MTT, 72 h): > 500 µM; CC50 (in vitro [2]; human, HUVEC, MTT, 72 h): > 500 µM; MTRlast ([3]; i.v. (1 mg/kg)): 3.19 ± 0.31 h; Vzobs ([3]; i.v. (1 mg/kg)): 3.65 ± 0.74 L/kg; MTRlast ([3]; p.o. (10 mg/kg)): 6.57 ± 0.38 h
COC[C@@H](NC(=O)C1CCC(F)(F)CC1)C(=O)N[C@H](Cc1ccccc1)C(=O)C(=O)NCc1nccs1 [3v]	39 min	100%	88.3%	73.2%	54.5%	42.3%	34.7%	44.6 mL/min/kg	2830 ± 959 ng·h/mL	2570 ± 820 ng·h/mL	1700 ± 237 ng/mL	4.8 min	6.48 ± 2.63 mL/min/kg	569 ± 130 min	14000 ± 783 ng·h/mL	12700 ± 1270 ng·h/mL	1010 ± 115 ng/mL	240 min	49.2 ± 4.92%	398 ± 70.2 min	CC50 (in vitro [2]; [5]): 132 ± 19.8 µM; CC50 (in vitro [2]; human (BEAS-2B, African green monkey (VeroE6)), across BEAS-2B, VeroE6, and HUVEC cells, MTT): 129 to 159 µM; CC50 (in vitro [2]; human, BEAS-2B, MTT, 72 h): 159 ± 4.34 µM; CC50 (in vitro [2]; human, HUVEC, MTT, 72 h): 129 ± 13.4 µM; MTRlast ([3]; i.v. (1 mg/kg)): 3.55 ± 0.52 h; Vzobs ([3]; i.v. (1 mg/kg)): 5.25 ± 2.13 L/kg; MTRlast ([3]; p.o. (10 mg/kg)): 7.63 ± 0.57 h
COC[C@@H](NC(=O)CC1CC(F)(F)C1)C(=O)N[C@H](Cc1ccccc1)C(=O)C(=O)NCc1nccs1 [3x]	30.4 min	100%	91.1%	71.5%	50.5%	34.3%	26.5%	57.2 mL/min/kg	2390 ± 645 ng·h/mL	2360 ± 639 ng·h/mL	1350 ± 116 ng/mL	4.8 min	7.3 ± 1.9 mL/min/kg	305 ± 34.2 min	11200 ± 364 ng·h/mL	10800 ± 124 ng·h/mL	806 ± 75.4 ng/mL	120 min	45.8 ± 0.52%	280 ± 62.4 min	CC50 (in vitro [2]; [5]): > 500 µM; CC50 (in vitro [2]; human, BEAS-2B, MTT, 72 h): > 500 µM; CC50 (in vitro [2]; human, HUVEC, MTT, 72 h): > 500 µM; MTRlast ([3]; i.v. (1 mg/kg)): 3.18 ± 0.53 h; Vzobs ([3]; i.v. (1 mg/kg)): 3.28 ± 1.17 L/kg; MTRlast ([3]; p.o. (10 mg/kg)): 6.47 ± 0.50 h
O=C(c1ccc(F)cc1)C1CCN(CCn2c(=O)[nH]c3ccccc3c2=O)CC1 [Ketanserin, reference compound]	22.4 min	–	86.9%	62.2%	38.1%	24.4%	15.9%	77.6 mL/min/kg	–	–	–	–	–	–	–	–	–	–	–	–	–
CC(C)(C)[C@H](NC(=O)C(F)(F)F)C(=O)N1C[C@H]2[C@@H]([C@H]1C(=O)N[C@H](C#N)C[C@@H]1CCNC1=O)C2(C)C [Nirmatrelvir, reference compound]	24.4 min	100%	86.5%	60%	38.7%	26%	18.6%	71.2 mL/min/kg	–	–	–	–	–	–	–	–	–	–	–	–	EC50 (SARS-CoV-1): 7.66 µM; EC50 (SARS-CoV-2 (B.1.351)): 28.8 µM; EC50 (SARS-CoV-2 (B.1.1.7)): 49.4 µM; EC50 (MERS-CoV): 11.3 µM; EC50 (SARS-CoV-2 (BA.2)): 1080 nM; EC50 (SARS-CoV-2 (BA.5)): 5.05 µM
CC(=O)CC(c1ccccc1)c1c(O)c2ccccc2oc1=O (centres unmarked) [Warfarin, reference compound]	–	–	–	–	–	–	–	–	–	–	–	–	–	–	–	–	–	–	–	–	fraction unbound (in vitro [4]): 0.009
